Read-outs that look alike come from different tables or passages of the source.
What was measured:
Rad51 [1] = biological target: T1, Rad51 (Homo sapiens, UniProt Q06609); experiment: DNA invasion by D-loop assay (strand exchange); assay type: biochemical
T1 sequence (Q06609 1-339): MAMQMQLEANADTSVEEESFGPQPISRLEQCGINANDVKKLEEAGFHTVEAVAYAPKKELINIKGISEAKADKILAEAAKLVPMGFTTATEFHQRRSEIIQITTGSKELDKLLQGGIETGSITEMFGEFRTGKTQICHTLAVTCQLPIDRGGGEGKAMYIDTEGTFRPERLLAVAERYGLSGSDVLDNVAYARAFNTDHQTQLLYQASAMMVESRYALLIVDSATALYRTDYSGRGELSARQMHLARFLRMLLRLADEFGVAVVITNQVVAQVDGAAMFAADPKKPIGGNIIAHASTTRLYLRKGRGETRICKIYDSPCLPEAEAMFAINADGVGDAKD
Experimental: Labeled 100-ssDNA** (1 μM) was incubated with 0.5 μM Rad51 in presence or absence of the indicated amounts of the corresponding molecule in 10 μL of standard reaction buffer containing 20 mM Tris-HCl (pH 8), 1 mM ATP, 1 mM DTT, 1 mM CaCl2) at 37° C. for 20 min. The reaction was initiated by adding supercoiled pPB4.3 DNA (200 μM in bp). After incubation of 30 min at 37° C., the reactions were stopped and deproteinized by a stop solution (10 mM Tris-HCl pH 8, 10 mM MgCl2, 1% SDS, and 1 mg/mL proteinase K. The reaction mixtures were further incubated for 15 min at 37° C. After adding 5-fold loading dye (0.05% bromophenol blue, 8% glycerol, 1 mM EDTA), the reaction products were separated by electrophoresis on 1% agarose gel. The electrophoresis was carried out in 0.5×TAE buffer (20 mM Tris, 10 mM acetic acid and 1 mM EDTA) at 100 V for 2 h. The labeled products (100-ssDNA** and D-loop) were visualized and quantified by the detection of the IRD-700 dye with the 700 nm infrared fluorescent detection channel of an Odyssey Infrared Imager (LI-COR) (Normand, A. et al., Biochemical Pharmacology, October 2014, Vol. 91, No. 3, pp. 293-300).
The “D-loop” in vitro test allows the quantification of the formation of the strand exchange structure (D-loop) and thus the determination of the inhibitory power of a molecule during the strand exchange step of the recombinase mechanism. IC50 measuring the RAD51 protein inhibition in presence of compounds A-1 to A-5, […] and DIDS are then calculated.

HsRad51 = biological target: T2, HsRad51 (Homo sapiens, UniProt Q06609); experiment: RAD51 oligomerization by SDS-PAGE gel after crosslink; assay type: biochemical; conditions: 2.5 μM HsRad51, disuccinimidyl suberate crosslink, SDS-PAGE/Western blot; FIG. 1
T2 sequence (Q06609 1-339): T1 sequence (Q06609 1-339)
Experimental: The reaction was performed at room temperature. 2.5 μm HsRad51 was incubated with the indicated concentrations of tested compounds for 10 min in a buffer containing 20 mm sodium phosphate, 50 mm NaCl, 1 mm MgCl 2, and 1 mm ATP. The cross-linking reactions were initiated by the addition of disuccinimidyl suberate (50 μm) and allowed to proceed for 30 min. Reactions were quenched by the addition of Tris-HCl (pH 7.5, final concentration: 50 mm) followed by subsequent incubations for 15 min. The products were then separated by 12% SDS polyacrylamide gel electrophoresis and detected by Western blot with mouse monoclonal anti-Rad51 antibody (NeoMarkers) and anti-mouse Alexa-Fluor 700-conjugated secondary antibody (Molecular Probes, Eugene, OR). The cross-linked dimer was quantified by an Odyssey Infrared Imaging System scanner (Li-Cor Biosciences) (Martinez, S. F. et al., “Targeting human Rad51 by specific DNA aptamers induces inhibition of homologous recombination”, Biochimie, December 2010, Vol. 92, No. 12, pp. 1832-1838).
The SDS-PAGE electrophoresis after crosslink maintains and immobilizes the RAD51 protein complexes and thus allows visualization of the degree of oligomerization (polymer formation) of the RAD51 protein. The effect of RAD51 protein inhibitors B-1, B-2, B-3, DIDS and X-4 on this key step of RAD51 protein recombinase activity has thus been evaluated. The results are presented on FIG. 1.

Rad51 [2] = biological target: T1, Rad51; experiment: RAD51 nucleofilament formation by Bio-Layer Interferometry (BLItz), binding of Rad51 to ssDNA; conditions: for activity on nucleofilament formation compared with reference molecule BPQ / formation of RAD51 protein nucleofilament (relative binding of RAD51 protein with single-stranded DNA): FIG. 2; for formation of RAD51 protein nucleofilament (relative binding of RAD51 protein with single-stranded DNA): increasing doses of inhibitors; for activity on nucleofilament formation compared with reference molecule DIDS: low dose (5 μM)
Experimental: The binding of Rad51 to ssDNA was monitored and quantified by Bio-Layer Interferometry technology using the BLItz platform (FortéBio Inc.). The procedure includes four steps: (1) the baseline in buffer A containing 1×PBS, 10 mM MgCl2 and 0.0075% Tween20 was recorded for 20 s; (2) loading and binding of Rad51 were measured for 40 s using 1.5 μM Rad51 and 1 mM ATP in buffer A; (3) the dissociation of Rad51 from ssDNA was recorded for 20 s in buffer A; (4) the ssDNA biosensor was regenerated using baths of 50 mM NaOH. Except for the step 2, which used 4 μL drop of the protein sample, the steps 1, 3 and 4 used 250 μL solutions in 0.5 mL tube. The measurement parameters were as follows: room temperature measurement and stirring speed of 2200 rpm. To investigate the effect of CSB and analogs to the ssDNA binding of Rad51, the molecule was included in the protein sample of the step 2 at the indicated concentrations and incubated for 5 min before loading on the biosensor. (Normand, A. et al., “Identification and characterization of human Rad51 inhibitors by screening of an existing drug library.”, Biochemical Pharmacology, October 2014, Vol. 91, No. 3, pp. 293-300).
A test based on interferometry (Blitz®, Fortebio) allows the measure of the association kinetics of RAD51 protein with a single-stranded DNA immobilized on a biosensor support in the presence or absence of an inhibitor. The effect of compounds B-1, B-2, B-3, BPQ and X-4 on RAD51 nucleofilament formation has been evaluated in presence of increasing doses of inhibitors. The results are presented on FIG. 2.

[3] = test system: recombinant fibroblast line RG37; experiment: Intracellular homologous recombination (HR), GFP reconstitution after I-SceI cleavage, flow cytometry; assay type: cell-based; conditions: RG37 cells, 72 h after pCMV-HA-I-SceI transfection; FIG. 3
Experimental: After transfection with the pCMV-HA-I-SceI plasmid and incubation for 72 h, the cells were collected in PBS and 50 mM EDTA, pelleted and fixed with 2% paraformaledhyde for 20 min. The percentage of GFP-expressing cells was scored by FACS analysis using Cytoflex (Beckman Coulter). At least 3 independent experiments were performed, and HA-I-SceI expression was verified each time by Western blot with rabbit anti-HA antibody (Abcam).
The recombinant fibroblast line RG37 is used to confirm in vitro results (Examples 2-5) in the cellular context. This cellar line comprises two non-functional GFP cassettes, one of which has a unique cleavage site inducible by transfection of a restriction enzyme. After cleavage, which is equivalent to a double-strand break (DSB) of the DNA, the homologous recombination (HR) leads to the reconstitution of a complete GFP cassette thus making the cell fluorescent. The rate of intracellular HR is then determined by measurement in flow cytometry so as to measure the level of HR in cells after treatment with compounds C-3, B-2 and X-2.

DU-145 cell line = experiment: Clonogenicity test, sensitizing effect with an antineoplastic drug; assay type: cell-based; conditions: Homo sapiens; DU-145, camptothecin alone; read-out: IC50 (clonogenic survival, camptothecin)
Experimental: Clonogenicity tests are carried out against several model cell lines derived from cancer including prostate cancer (DU-145). Cells are exposed to an anti-cancer agent targeting DNA (cisplatin or camptothecin). Damaged cells are counted and seeded in the presence or in the absence of B-2 in triplicate culture plates. After about two weeks of incubation at 37° C. the number of clones formed is counted. Each cell capable of repairing its lesions will then form a clone. After counting, the percentage of survival will be calculated relative to the control condition for which it is considered that there is 100% survival.
The main interest of RAD51 protein inhibitors is the sensitization of chemo-resistant or radio-resistant cancerous cell lines. Clonogenicity evaluation was carried out on the DU-145 cell line treated with cisplatin treatment in the presence or in the absence of disulfonate stilbene B-2 (RAD51 protein inhibitor).
DU-145 cell line was treated with camptothecin in the presence or in the absence of disulfonate stilbene B-2 (RAD51 protein inhibitor) and the clonogenic cell survival was determined.

[4] = 0.5 μM Rad51, 1 μM 100-ssDNA, 37° C., read-out: IC50 (RAD51 protein inhibition, D-loop formation)

| IC50 (Rad51 [1]; [4]) | Structure (SMILES) | oligomerization state of RAD51 protein (HsRad51) | formation of RAD51 protein nucleofilament (relative binding of RAD51 protein with single-stranded DNA) (Rad51 [2]) | also measured |
| --- | --- | --- | --- | --- |
| > 10 µM | O=C(Nc1ccc(/C=C/c2ccc(NC(=O)c3ccccc3)cc2S(=O)(=O)O)c(S(=O)(=O)O)c1)c1ccccc1 [A-3, Sodium (E)-6,6′-(ethene-1,2-diyl)bis(3-benzamidobenzenesulfonate)] | – | – | – |
| 6 µM | COc1ccc(C(=O)Nc2ccc(/C=C/c3ccc(NC(=O)c4ccc(OC)cc4)cc3S(=O)(=O)O)c(S(=O)(=O)O)c2)cc1 [A-4, Sodium (E)-6,6′-(ethene-1,2-diyl)bis(3-(4-methoxybenzamido)benzenesulfonate)] | – | – | – |
| 21 µM | [N-]=[N+]=Nc1ccc(/C=C/c2ccc(N=[N+]=[N-])cc2S(=O)(=O)[O-])c(S(=O)(=O)[O-])c1.[Na+].[Na+] [B-1, Sodium (E)-6,6′-(ethene-1,2-diyl)bis(3-azidobenzenesulfonate)] | significant reduction | inhibit | activity on nucleofilament formation compared with reference molecule BPQ (Rad51 [2]): comparable to or even better; activity on nucleofilament formation compared with reference molecule DIDS (Rad51 [2]): comparable |
| – | O=C(Nc1ccc(/C=C/c2ccc(NC(=O)Oc3ccccc3)cc2S(=O)(=O)[O-])c(S(=O)(=O)[O-])c1)Oc1ccccc1.[Na+].[Na+] [C-3, Sodium (E)-6,6′-(ethene-1,2-diyl)bis(3-((phenoxycarbonyl)amino)benzenesulfonate)] | – | – | intracellular HR inhibition [3]: significant inhibitory effect; IC50 (Rad51 [1]): 2 µM |
| 41 µM | O=S(=O)(O)c1cc(NS(=O)(=O)c2ccccc2)ccc1/C=C/c1ccc(NS(=O)(=O)c2ccccc2)cc1S(=O)(=O)O [S-1, Sodium (E)-6,6′-(ethene-1,2-diyl)bis(3-(phenylsulfonamido)benzenesulfonate)] | – | – | – |
| 29 µM | Cc1ccc(S(=O)(=O)Nc2ccc(/C=C/c3ccc(NS(=O)(=O)c4ccc(C)cc4)cc3S(=O)(=O)O)c(S(=O)(=O)O)c2)cc1 [S-2, Sodium (E)-6,6′-(ethene-1,2-diyl)bis(3-((4-methylphenyl)sulfonamido)benzenesulfonate)] | – | – | – |
| – | O=C(Nc1ccc(/C=C/c2ccc(NC(=O)Oc3ccccc3)cc2)cc1)Oc1ccccc1 [X-2, Diphenyl (ethene-1,2-diylbis(4,1-phenylene))(E)-dicarbamate, reference compound] | – | – | intracellular HR inhibition [3]: does not lead to any inhibition |
| – | [N-]=[N+]=Nc1ccc(/C=C/c2ccc(N=[N+]=[N-])cc2)cc1 [X-4, (E)-1,2-bis(4-azidophenyl)ethene, reference compound] | no effect | no inhibitory effect whatsoever | – |
| – | CC[C@@]1(O)C(=O)OCc2c1cc1n(c2=O)Cc2cc3ccccc3nc2-1 [camptothecin, reference compound] | – | – | IC50 (DU-145 cell line): 0.098 µM |

| Structure (SMILES) | IC50 (Rad51 [1]; [4]) | oligomerization state of RAD51 protein (HsRad51) | formation of RAD51 protein nucleofilament (relative binding of RAD51 protein with single-stranded DNA) (Rad51 [2]) | also measured |
| --- | --- | --- | --- | --- |
| O=S(=O)([O-])c1cc(I)ccc1/C=C/c1ccc(I)cc1S(=O)(=O)[O-].[K+].[K+] [B-3, Potassium (E)-6,6′-(ethene-1,2-diyl)bis(3-iodobenzenesulfonate)] | 34 µM | significant reduction | inhibit | activity on nucleofilament formation compared with reference molecule BPQ (Rad51 [2]): comparable to or even better; activity on nucleofilament formation compared with reference molecule DIDS (Rad51 [2]): comparable |

— patent US12233041B2, “Disulfonate stilbenes for use in the treatment of proliferative diseases” (UNIVERSITÉ DE NANTES, priority 2018, dated 2025)
